Experimental data reported in patent US20230293458A1, “MULTIBIOTIC AGENTS AND METHODS OF USING THE SAME” (Flagship Pioneering Innovations V, Inc., priority 2017, published 2023).

Tests used:
[1] = Stability of multibiotic agents in Simulated Gastric Fluid (SGF); type: in vitro ADME; conditions: simulated gastric fluid pH 1.6 with pepsin, 37° C., 1 μM
Method in brief: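 Compounds were incubated at 1 μM final at 37 °C in simulated gastric fluid containing NaCl, pH 1.6, with FaSSIF powder and 0.1 mg/mL pepsin. Aliquots were taken at T0 and at regular intervals and quenched with acetonitrile. Degradation rates were determined by LC/MS.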

[2] = Stability of multibiotic agents in Simulated Intestinal Fluid (SIF); type: in vitro ADME; conditions: simulated intestinal fluid pH 6.7 with pancreatin, 37° C., 1 μM
Method in brief: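 Compounds at 1 μM final (from 1 mM DMSO stock) incubated at 37 °C with agitation in fresh SIF (FaSSIF plus pancreatin in pH 6.7 phosphate buffer). Aliquots taken at T0 and regular intervals, quenched with 1 volume acetonitrile. Degradation rate determined by LC/MS.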

[3] = Assay 4. Fecal Incubation Stability; type: in vitro ADME; conditions: fecal slurry in YCFA media, anaerobic, 1 or 10 μM
Experimental: Assay 4. Fecal Incubation Stability. This assay can be used to assess the stability of a multibiotic agent in a large intestine. All experiments performed in an anaerobic chamber containing 90% nitrogen, 5% hydrogen and 5% carbon dioxide. Fecal matter in a slurry (15% (w/v)) was added to 96 well plates containing YCFA media or other suitable media (1.6 mL). Compounds were added to each individual well to reach a final analyte concentration of 1 or 10 μM, and the material was mixed by pipetting. At predetermined timepoints a sample was removed, quenched with acetonitrile, and analyzed by LC/MS.

[4] = Assay 1. Stability of multibiotic agents in a buffer; type: physicochemical; set-up: key to Assay 1 (% Remaining @ 24 hours): A: <25% of the tested compound remaining; B: 25-75% of the tested compound remaining; C: >75% of the tested compound remaining; D: no change in the amount of the tested compound
Experimental: Assay 1. Stability of multibiotic agents in a buffer. This assay can be used for the assessment of the stability of a multibiotic agent at different physiological pH levels.
Compounds were diluted in DMSO, and the resulting solution was added in the appropriate quantity to phosphate buffer (pH levels 2, 4, 6, and 8) to reach a total sample concentration of 2 μM. Compounds were incubated at RT, and aliquots were removed at time points 0, 60, 120, 360 and 1440 minutes and analyzed for purity by LC/MS/MS.

| Structure (SMILES) | Assay 2 (SGF) (% Remaining @ 4 hours) [1] | Assay 3 (SIF) (% @ Remaining 4 hours) [2] | Assay 4 (% Remaining at 24 h) [3] | degradation in Assay 1 (in words) ([4]; buffer stability, Assay 1) | Assay 1 (% Remaining @ 24 hours) ([4]; phosphate buffer pH 2, 4, 6 and 8, RT, 2 μM, 24 hours, LC/MS/MS) |
| --- | --- | --- | --- | --- | --- |
| CCCC(=O)Oc1cc(OC(=O)CCC)c2c(c1)O[C@H](c1cc(OC(=O)CCC)c(OC(=O)CCC)c(OC(=O)CCC)c1)[C@H](OC(=O)c1cc(OC(=O)CCC)c(OC(=O)CCC)c(OC(=O)CCC)c1)C2 [Example 15, [(2R,3R)-5,7-di(butanoyloxy)-2-[3,4,5-tri(butanoyloxy)phenyl]chroman-3-yl] 3,4,5-tri(butanoyloxy)benzoate] | C (>75% of the tested compound remaining) | C (>75% of the tested compound remaining) | C (>75% of the tested compound remaining) |  |  |
| CC(=O)Oc1cc(OC(C)=O)c2c(c1)O[C@H](c1cc(OC(C)=O)c(OC(C)=O)c(OC(C)=O)c1)[C@H](OC(=O)c1cc(OC(C)=O)c(OC(C)=O)c(OC(C)=O)c1)C2 [Example 16, [(2R,3R)-5,7-diacetoxy-2-(3,4,5-triacetoxyphenyl)chroman-3-yl] 3,4,5-triacetoxybenzoate] | C (>75% of the tested compound remaining) | A (<25% of the tested compound remaining) | A (<25% of the tested compound remaining) |  |  |
| CCCC(=O)O[C@@H]1[C@@H](OC(=O)CCC)[C@@H](Oc2ccc(N)cc2C(=O)O)OC[C@H]1OC(=O)CCC [Example 20, 5-amino-2-[(2R,3R,4S,5R)-3,4,5-tri(butanoyloxy)tetrahydropyran-2-yl]oxy-benzoic acid] | C (>75% of the tested compound remaining) | C (>75% of the tested compound remaining) | A (<25% of the tested compound remaining) |  |  |
| CCCC(=O)O[C@@H]1[C@@H](OC(=O)CCC)[C@H](Oc2ccc(N)cc2C(=O)O)OC[C@H]1OC(=O)CCC [Example 21, 5-amino-2-[(2S,3R,4S,5R)-3,4,5-tri(butanoyloxy)tetrahydropyran-2-yl]oxy-benzoic acid] | C (>75% of the tested compound remaining) | C (>75% of the tested compound remaining) |  | no apparent degradation | D |
| CCCC(=O)Oc1ccc2c(c1)oc(=O)c1cc(OC(=O)CCC)c(OC(=O)CCC)cc12 [Example 52, 8,9-di(butanoyloxy)-6-oxo-benzo[c]chromen-3-yl] butanoate] |  |  | A (<25% of the tested compound remaining) |  |  |
| O=C(CCc1c[nH]c2ccccc12)Oc1ccc(/C=C/c2cc(OC(=O)CCc3c[nH]c4ccccc34)cc(OC(=O)CCc3c[nH]c4ccccc34)c2)cc1 [Example 71, [4-[(E)-2-[3,5-bis[3-(1H-indol-3-yl)propanoyloxy]phenyl]vinyl]phenyl] 3-(1H-indol-3-yl)propanoate] | C (>75% of the tested compound remaining) | C (>75% of the tested compound remaining) | C (>75% of the tested compound remaining) |  |  |
| CCCC(=O)O[C@H](C)CC(=O)O[C@H]1CO[C@H]2[C@@H]1OC[C@H]2OC(=O)C[C@@H](C)OC(=O)CCC [Example 79, [(3S,3aR,6R,6aR)-6-[(3R)-3-butanoyloxybutanoyl]oxy-2,3,3a,5,6,6a-hexahydrofuro[3,2-b]furan-3-yl] (3R)-3-butanoyloxybutanoate] | C (>75% of the tested compound remaining) | B (25-75% of the tested compound remaining) | B (25-75% of the tested compound remaining) |  |  |
